Data from PubChem BioAssay (NCI).
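Five compound concentrations were applied to cells in 96-well plates for 48 hours; endpoints were derived by simple linear interpolation of the resulting dose-response curve. GI50: concentration for 50% inhibition of growth. TGI is the concentration that stops growth completely.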

Tests used:
Experiment in all cases: NCI-60 cell line screen, 48 h
SK-MEL-28 melanoma = system: SK-MEL-28 melanoma
OVCAR-5 ovarian = system: OVCAR-5 ovarian
SR leukemia = system: SR leukemia
HCT-116 colon = system: HCT-116 colon
MDA-MB-231 breast = system: MDA-MB-231 breast
U251 CNS = system: U251 CNS
NCI-H522 lung = system: NCI-H522 lung
SNB-75 CNS = system: SNB-75 CNS
PC-3 prostate = system: PC-3 prostate
BT-549 breast = system: BT-549 breast

| Structure (SMILES) | TGI (SK-MEL-28 melanoma) [µM] | TGI (OVCAR-5 ovarian) [µM] | TGI (SR leukemia) [µM] | TGI (HCT-116 colon) [µM] | TGI (MDA-MB-231 breast) [µM] | TGI (U251 CNS) [µM] | TGI (NCI-H522 lung) [µM] | TGI (SNB-75 CNS) [µM] | TGI (PC-3 prostate) [µM] | TGI (BT-549 breast) [µM] | GI50 (SK-MEL-28 melanoma) [µM] | GI50 (SR leukemia) [µM] | GI50 (HCT-116 colon) [µM] | GI50 (MDA-MB-231 breast) [µM] | GI50 (BT-549 breast) [µM] | GI50 (U251 CNS) [µM] | GI50 (NCI-H522 lung) [µM] | GI50 (SNB-75 CNS) [µM] | GI50 (PC-3 prostate) [µM] |
| --- | --- | --- | --- | --- | --- | --- | --- | --- | --- | --- | --- | --- | --- | --- | --- | --- | --- | --- | --- |
| CC12CC3CC/C(=N\O)C(C1)C3(N1CCOCC1)C/C2=N/O (centres undefined) | > 100 | > 100 | > 100 | > 100 | > 100 | > 100 | > 100 | 94.8 | > 100 |  |  |  |  |  |  |  |  |  |  |
| Cc1cc2nc(N3C(=O)/C(=C/c4cccc([N+](=O)[O-])c4)N=C3c3ccccc3)sc2cc1C | > 100 | > 100 | 35.1 | > 100 | > 100 | 58 |  | 33.2 | 56.5 | > 100 |  |  |  |  |  |  |  |  |  |
| O=C(c1ccccc1)c1nn(-c2ccc(Cl)cc2)c2nc3nc(-c4ccccc4)cc(=O)n3nc12 | > 100 |  | 57.6 | 52.2 | > 100 | > 100 | > 100 | 97.9 | > 100 | 62.8 | 53.7 | 22.9 | 19.9 | 26 | 26.2 | 31.5 | 31.2 | 28.8 | 39.3 |
| O=C1/C(=C\c2ccc([N+](=O)[O-])cc2)Sc2scc(-c3ccc(O)c(O)c3)[n+]21 | 25 | 35.4 | 27.9 | 75.2 | 66.9 | 20.5 | 5.34 | 25.9 | 19.4 |  |  |  |  |  |  |  |  |  |  |
| O=c1[nH]c2cc(C(F)(F)F)ccc2nc1Cc1ccccc1 | > 100 |  | > 100 | > 100 | 83.6 | > 100 |  | > 100 | > 100 | > 100 |  |  |  |  |  |  |  |  |  |
| CC(=O)Oc1ccc(N2C(=O)C3c4[nH]c5ccccc5c4C4CCC(C(C)(C)C)CC4C3C2=O)cc1 (centres undefined) | 14.9 | 14.6 |  | 4.93 | 4.63 | 11.1 | 9.93 |  | 10.4 | 14.9 |  |  |  |  |  |  |  |  |  |
| CC(=O)N1c2ccccc2C(C)(C)OC1C(Cl)(Cl)Cl (centres undefined) | > 100 | > 100 |  | > 100 | > 100 | > 100 | 69.3 | 71.9 | > 100 | 81 |  |  |  |  |  |  |  |  |  |
| COc1cc([C@@H]2c3cc4c(cc3[C@H](OC3OC5COC(C(C)C)OC5C(O)C3O)C3COC(=O)[C@@H]32)OCO4)cc(OC)c1O (some centres undefined) |  | 25 | > 100 | 13.5 | 28.8 | 10.5 | 37.1 |  | 14.4 | 15.9 |  |  |  |  |  |  |  |  |  |
| O=C1NCC2(CCNCC2)N1c1ccccc1 | > 100 | > 100 | > 100 | > 100 | > 100 | > 100 | > 100 | > 100 | > 100 |  |  |  |  |  |  |  |  |  |  |
| Cc1ccc(/C=C2\CN(C)CC3C(c4ccc(C)cc4)=C(C#N)C(=O)NC23)cc1 (centres undefined) | > 50 | > 50 |  | > 50 | > 50 | > 50 | > 50 |  | > 50 | > 50 |  |  |  |  |  |  |  |  |  |
| Cc1ccc(/C=C2\N=C(N3CCCCC3)NC2=O)cc1 | > 100 | > 100 | > 100 | > 100 | > 100 | > 100 | > 100 |  | > 100 | > 100 |  |  |  |  |  |  |  |  |  |
| Cc1cc(S(N)(=O)=O)c(SCc2nc(N)nc(N(C)C)n2)cc1Cl | > 10 | > 10 | > 10 | > 10 |  | > 10 | > 10 | > 10 | > 10 | > 10 |  |  |  |  |  |  |  |  |  |
| COC(=O)[C@@H]1C=C[C@@H](C#N)n2c(=O)n(-c3ccccc3)c(=O)n21 | > 100 | > 100 | 47.4 | > 100 | 93.6 | > 100 | 32.4 | 79 |  | > 100 |  |  |  |  |  |  |  |  |  |
| CCOc1ccc(N2C(=O)C3c4[nH]c5ccccc5c4C4CCC(C(C)(C)C)CC4C3C2=O)cc1 (centres undefined) | > 100 |  | > 100 | > 100 |  | > 100 | > 100 | > 100 |  |  |  |  |  |  |  |  |  |  |  |
| CC(C)C1CC=NN1C(=O)OC(C)(C)C (centres undefined) |  | > 100 | > 100 | > 100 |  |  | > 100 | > 100 |  |  |  |  |  |  |  |  |  |  |  |
| NS(=O)(=O)c1ccc(NC(=O)c2cc([N+](=O)[O-])cc([N+](=O)[O-])c2)cc1 | > 100 |  | > 100 | > 100 | > 100 | > 100 |  | > 100 | 86.8 | > 100 |  |  |  |  |  |  |  |  |  |
| O=C(O)CCC(NC(=O)c1ccc(Nc2nc3ccccc3nc2C(=O)O)cc1)C(=O)O (centres undefined) | > 100 | > 100 | > 100 | > 100 | > 100 | > 100 | > 100 | > 100 |  | > 100 |  |  |  |  |  |  |  |  |  |
| Cc1nc(-c2ccccc2)c(C)n2c1nc1ccccc12 | > 100 | > 100 | 56.2 | > 100 | > 100 | > 100 |  | 66.3 | > 100 | 65.5 |  |  |  |  |  |  |  |  |  |
| Cc1c(C(=O)CSc2nc3ccc([N+](=O)[O-])cc3[nH]2)c(=O)n(-c2ccccc2)n1C | > 100 | > 100 | > 100 | > 100 |  | > 100 | > 100 | > 100 |  |  |  |  |  |  |  |  |  |  |  |
| COC(=O)c1ccc2c(c1)CC1(C2)Cc2cc3c(c(C(=O)OC)c2C1)CCCC3 (centres undefined) | > 100 | > 100 | > 100 | > 100 | > 100 | > 100 | > 100 | > 100 | > 100 |  |  |  |  |  |  |  |  |  |  |
| COc1cc(C2CC(c3cccc(Nc4ccncc4)c3)=NN2c2cc(Cl)cc(Cl)c2)cc(OC)c1OC (centres undefined) | 3.31 |  | 3.72 |  |  |  |  | 3.06 | 3.14 |  | 1.76 | 1.64 |  |  |  |  |  | 1.31 | 1.57 |
| CSCCC(NCc1c(O)ccc2ccc(=O)oc12)C(=O)O (centres undefined) | > 100 | > 100 | > 100 | > 100 | > 100 | > 100 | > 100 | > 100 | > 100 |  |  |  |  |  |  |  |  |  |  |
| CC(O)c1c2c(cc3c1CC1(C3)Cc3cc4c(c(C(C)O)c3C1)CCC4)CCC2 (centres undefined) |  | 50.2 | 29.8 | 24.8 | 34.8 | 29.3 | 30 |  | 34.9 |  |  |  |  |  |  |  |  |  |  |
